From patent EP0231622B1, “Inhibition of the 5-lipoxygenase pathway” (priority 1985, dated 1987)
Read-outs that look alike come from different tables or passages of the source. Marks after values point to notes of the source that are not given here. Each block holds one compound with its values, some of them ahead of it.

Tests used:
[1] = test system: Arachidonic Acid-Induced Cellular Infiltration; assay: Arachidonic acid-induced air pouch inflammation; assay type: in vivo, Lewis rats; settings: 3 hours after arachidonic acid
Excerpt: (§1) In the following Examples where mice were used, they were male Balb/c mice (20-28 g), and where rats were used, they were male Lewis rats (180-210 g). All mice and rats were obtained from Charles River Breeding Laboratories, Kingston, N.Y. Within a single experiment, mice and rats were sex and age matched.
(§2) The compounds of Formula (IA) were used either as the free base or in the appropriate salt form. Levamisole was used as the hydrochloride salt. The compounds were homogenized in 0.5% tragacanth. Compounds were administered by gavage at the indicated dose in a final volume of 10 ml/kg. Nordihydroguaiaretic acid (NDGA) was solubilized in dimethylacetamide and diluted with olive oil for subcutaneous administration.
(§3) Rats were shaved on the dorsal flank, and then injected subcutaneously one day later with 20 ml of air to form a defined pouch, by the method of Sedgwick et al., J. Pathology, 141, 483-495 (1983). The air pouch was reinflated as necessary over the next 6 days. To assay anti-inflammatory activity, animals were treated orally with test compound or vehicle (10 ml/kg) one hour before injection of 2.0 ml of a 2.0% carrageenan suspension containing 200 units/ml penicillin and 100 »g/ml streptomycin into the air pouch. In other experiments, 5 ml of 0.1% arachidonic acid in 0.2 M bicarbonate buffer was injected two hours after drug treatment. Animals were sacrificed using CO₂ three hours after instillation of irritant. The exudate was then aspirated from the pouch and neutrophil count and differential cell count were measured.

[2] = test system: Carrageenan-Induced Cellular Infiltration; assay: Carrageenan-induced air pouch inflammation; assay type: in vivo, Lewis rats; settings: 3 hours after carrageenan
Excerpt: as §1, §2, §3

[3] = test system: Arachidonic Acid-Induced Inflammation of the Mouse Ear; assay: Arachidonic acid-induced mouse ear inflammation; assay type: in vivo, Balb/c mice; settings: for Increase in Ear Thickness at 1 Hour (x 10⁻³ cm) / % Change: Table 7, p.o.
Excerpt: as §1, §2
Arachidonic acid in acetone (2 mg/20 ul) was applied to the inner surface of the left ear. The thickness of both ears was then measured with a dial micrometer one hour after treatment, and the data were expressed as the change in thickness (10⁻³ cm) between treated and untreated ears.
Test compounds were given orally in 0.5% tragacanth at the times indicated in the text prior to the topical application of arachidonic acid.
Parenteral administration of compound was accomplished by subcutaneous injection of solution as indicated.

[4] = test system: Polymorphonuclear Leukocytes; assay: Mouse Carrageenan Peritonitis (PMN infiltration); assay type: in vivo, Balb/c mice; settings: p.o.
Excerpt: as §1, §2
Mice were pretreated with either the test compound or vehicle one hour before the intraperitoneal injection of a 1.0% carrageenan suspension in saline (0.2 ml/ mouse). Mice were sacrificed by cervical dislocation two hours after injection, and 3.0 ml of phosphate buffered saline, without Ca⁺⁺ or Mg⁺⁺, was injected into the peritoneum. Following massage, a 2.0 ml aliquot of the lavage fluid was removed, and the total cell count determined on a Coulter counter and differential cell count determined by microscopic examination of Giesma-stained slides.

[5] = test system: Experimental Allergic Encephalomyelitis; assay: Experimental allergic encephalomyelitis, hindleg paralysis; assay type: in vivo, Female Lewis rats; settings: p.o. days 0-4, 7-11, 14-18
Protocol: EAE is induced in Female (Charles River) Lewis rats by a single intradermal injection of 0.1 ml of an encephalitogenic emulsion consisting of equial parts of a 50% w/v homogenate of guinea pig spinal cord and mid-brain in 0.5% aqueous phenol and Freund's complete adjuvant (4 mg/ml killed, dried M. butyricum) into a hindpaw (left) footpad. […] Any animal which becomes paralyzed during the course of the experiment is considered to have developed EAE whether or not the paralysis is permanent. Test compounds are administered daily beginning on the day of injection, for 19 days, exclusive of days 5, 6 12 and 13. Drug activity is determined by comparing the indicidence of EAE (paralysis) of the treated group with a control (vehicle) group. The level of significant difference between the treated groups and control groups is determined by a Chi-square test using a 2x2 contingency table. Body weight changes from day 0 are also statistically compared to the control group using a Student "t" test.

[6] = target: T1, 5-LO (Rattus norvegicus, UniProt P12527); assay: di-HETE production by RBL-1 high speed supernatant; assay type: biochemical; settings: concentrations up to 10⁻⁴M; soluble extract of RBL-1 cells
T1 construct: The activities of these enzymes in extracts of RBL-1 cells were assayed; host or cells: RBL-1 cells, disrupted by nitrogen cavitation; 10,000 x g or 100,000 x g supernatant
T1 sequence (P12527 1-673): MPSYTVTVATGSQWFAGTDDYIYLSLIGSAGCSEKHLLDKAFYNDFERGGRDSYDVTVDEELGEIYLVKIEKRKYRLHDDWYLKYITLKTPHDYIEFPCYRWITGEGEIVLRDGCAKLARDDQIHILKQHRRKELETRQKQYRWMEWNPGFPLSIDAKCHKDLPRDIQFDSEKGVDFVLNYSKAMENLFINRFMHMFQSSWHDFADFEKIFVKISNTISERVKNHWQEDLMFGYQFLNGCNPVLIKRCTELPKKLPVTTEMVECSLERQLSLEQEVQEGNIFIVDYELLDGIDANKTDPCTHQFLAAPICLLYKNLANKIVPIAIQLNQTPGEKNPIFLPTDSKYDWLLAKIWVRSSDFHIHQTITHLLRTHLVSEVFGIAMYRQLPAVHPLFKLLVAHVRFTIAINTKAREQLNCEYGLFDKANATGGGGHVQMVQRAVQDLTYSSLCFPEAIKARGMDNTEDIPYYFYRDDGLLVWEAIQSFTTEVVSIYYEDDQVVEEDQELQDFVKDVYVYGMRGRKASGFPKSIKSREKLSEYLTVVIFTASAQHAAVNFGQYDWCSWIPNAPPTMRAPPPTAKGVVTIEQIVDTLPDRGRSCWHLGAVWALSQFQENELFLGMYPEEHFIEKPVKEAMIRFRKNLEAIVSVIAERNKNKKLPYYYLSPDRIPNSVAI
Protocol: (§4) For in vitro experiments, compounds were dissolved at appropriate concentrations in ethanol or DMSO (dimethylsulfoxide) (final concentration <1.0%) and then diluted to final concentrations using the buffers indicated in the text.
The activities of these enzymes in extracts of RBL-1 cells were assayed using the method of Jakschik and Lee, Nature, 287, 51-52 (1980). RBL-1 cells were obtained from the American Type Culture Collection (#CRL 1378) and were grown at 37°C (5% CO₂ in air) in spinner culture in MEM supplemented with 10% heat inactivated fetal calf serum. Harvested cells were washed with 50 mM sodium phosphate buffer, pH 7.0, containing 1 mM EDTA and 0.1% gelatin, resuspended in fresh buffer (5 x 10⁷ cells/ml) and disrupted by nitrogen cavitation using the Parr bomb at 750 psi for 10 min. The broken cell extract was then centrifuged at 10,000 x g for 20 minutes and the supernatant centrifuged at 100,000 x g for 60 minutes. Aliquots (0.25 mls) of the supernatant were preincubated with or without drugs for 10 min, after which 10 ul CaCl₂ (50 mM) was added and the reaction was initiated with 2.5 ul of 2.5 mM arachidonic acid-1-¹⁴C (final concentration was […]; specific activity 20,000 dpm/nmole). After incubation for 3 min at 37°C, the reaction was terminated by addition of 2 volumes (0.5 ml) ice cold acetone and the sample was allowed to deproteinize on ice for 10 min prior to centrifugation at 1,000 x g for 10 min. The deproteinized supernatant was adjusted to pH 3.5 with 2N formic acid and extracted with 2 volumes of ice cold ethyl acetate. The extracted samples were dried under argon, redissolved in ethyl acetate and applied to Whatman LK5D thin layer chromatography (TLC) plates which were developed using the A-9 solvent system [organic phase of ethyl acetate: 2,2,5-trimethylpentane:acetic acid: water (110:50:20:10)] described by Hamberg and Samuelsson, J. Biol. Chem., 241, 257-263 (1966). Arachidonic acid, 5-HETE, di-HETE and PGD₂ were quantified with a Berthold LB 2832 autoscanner.
The 5-lipoxygenase and LTA₄ synthetase activities were further studied under the following conditions. An additional centrifugation of the RBL-1 supernatant was run at 100,000 x g for 60 min, to remove the particulate cyclooxygenase activity. Sample incubation was done under conditions similar to those described above, i.e., 2 mM CaCl₂ and 25 uM arachidonic acid-1-¹⁴C, however, with an incubation time of 5 min at […]. Under these conditions, only the 5-lipoxygenase pathway metabolites were detectable. The 5-HETE and di-HETEs were formed at a linear rate, and […] amounts of the arachidonic acid-1-¹⁴C substrate were utilized.

[7] = test system: Arachidonic Acid-Induced Rat Paw Edema; assay: Arachidonic acid-induced rat paw swelling; assay type: in vivo, Lewis rats; settings: read at 2 hours; for Change in Paw Volume: one hour before arachidonic acid
Excerpt: as §1, §2

[8] = test system: Production of PGE₂ by Mouse Peritoneal Exudate Cells; assay: PGE2 production by peritoneal macrophages; assay type: cell-based
Protocol: as §4
Mice were injected intraperitoneally with 350 »g Corynebacterium parvum and the peritoneal exudate cell population was harvested 12-14 days later by peritoneal lavage with cold phosphate-buffered saline, and resuspended in Eagles minimal essential medium supplemented with 5% fetal calf serum. […] Test compounds were added (100 ul) to bring the final volume to 1.0 ml. Lipopolysaccharide (5 »g/ml) was then added to stimulate PGE₂ synthesis. After incubation at 37°C for 2 hours, cell-free supernatants were harvested, placed in polypropylene tubes and frozen at -20°C until assayed for their PGE₂ content using a commercial radioimmunoassay kit. IC₅₀ is the concentration that inhibits 50% of control activity.

[9] = Macrophage, read-out: IC₅₀ production of PGE₂ by inflammatory macrophages
[10] = Peritoneal macrophage, Table 10, LPS-stimulated, C. parvum-elicited peritoneal exudate cells, read-out: IC₅₀ (»M) production of PGE₂

Structure (SMILES): COc1ccc2c(c1)c(CC(=O)O)c(C)n2C(=O)c1ccc(Cl)cc1 [Indomethacin]
Cellular Infiltrate (Total x 10⁻⁶) MN ([1]; 5 mg/kg): 7.0 ± 6.4 x 10⁻⁶ | Cellular Infiltrate (Total x 10⁻⁶) PMN ([1]; 5 mg/kg): 5.0 ± 3.8 x 10⁻⁶ | Exudate Volume ([1]; 5 mg/kg): 2.5 ± 0.8 mL | Cellular Infiltrate (Total x 10⁻⁶) MN ([2]; 5 mg/kg): 4.0 ± 0.8 x 10⁻⁶ | Cellular Infiltrate (Total x 10⁻⁶) PMN ([2]; 5 mg/kg): 2.8 ± 0.7^d x 10⁻⁶ | Exudate Volume ([2]; 5 mg/kg): 2.0 ± 0.5 mL | Increase in Ear Thickness at 1 Hour (x 10⁻³ cm) ([3]; 10 mg/kg): 24.4 ± 0.8 x 10⁻³ cm | % Change ([4]; Table 3, 10 mg/kg): -12^b % | PMN x 10⁻⁵/ml (mean ± S.D.) ([4]; Table 3, 10 mg/kg): 8.20 ± 2.65 x 10⁻⁵/ml | HINDLEG PARALYSIS - CUMULATIVE INCIDENCE DAY 9 TO 13 ([5]; 2 Mg/kg/day): 6/11 | HINDLEG PARALYSIS - CUMULATIVE INCIDENCE DAY 14 TO 18 ([5]; 2 Mg/kg/day): 10/11 | effect on eicosanoid formation (di-HETE production) [6]: inactive | Change in Paw Volume ([7]; 5 mg/kg): 0.29 ± 0.06 mL | (% Inhibition) of change in paw volume ([7]; 5 mg/kg): 0%

Structure (SMILES): CN(Cc1cnc2nc(N)nc(N)c2n1)c1ccc(C(=O)N[C@@H](CCC(=O)O)C(=O)O)cc1 [METHOTREXATE]
HINDLEG PARALYSIS - CUMULATIVE INCIDENCE DAY 9 TO 13 ([5]; 0.3 Mg/kg/day): 0/11** | HINDLEG PARALYSIS - CUMULATIVE INCIDENCE DAY 14 TO 18 ([5]; 0.3 Mg/kg/day): 0/11**

IC50 [8, 9]: 28 µM | IC50 [8, 10]: 28 µM
Structure (SMILES): O=C1CCN(c2ccccc2)N1 [Phenidone]
Cellular Infiltrate (Total x 10⁻⁶) MN ([1]; 100 mg/kg): 2.2 ± 1.5^d x 10⁻⁶ | Cellular Infiltrate (Total x 10⁻⁶) PMN ([1]; 100 mg/kg): 1.3 ± 0.8^e x 10⁻⁶ | Exudate Volume ([1]; 100 mg/kg): 2.8 ± 0.4 mL | Cellular Infiltrate (Total x 10⁻⁶) MN ([2]; 100 mg/kg): 3.5 ± 1.4 x 10⁻⁶ | Cellular Infiltrate (Total x 10⁻⁶) PMN ([2]; 100 mg/kg): 1.7 ± 0.6^d x 10⁻⁶ | Exudate Volume ([2]; 100 mg/kg): 1.5 ± 0.8 mL | ED50 ([3]; Mus musculus, po, 1 hour after 2 mg of arachidonic acid to the ear, read-out: ED₅₀ (inhibition of the edematous response of the ear)): 44 mg/kg | % Change ([3]; 50 mg/kg): -57^b % | Increase in Ear Thickness at 1 Hour (x 10⁻³ cm) ([3]; 50 mg/kg, 15 minutes before arachidonic acid): 12.2 ± 1.6 x 10⁻³ cm | % Change ([4]; Table 1, 50 mg/kg): -51^c % | PMN x 10⁻⁵/ml (mean ± S.D.) ([4]; Table 1, 50 mg/kg): 5.30 ± 2.25 x 10⁻⁵/ml | PMN x 10⁻⁵/ml (mean ± S.D.) ([4]; Table 1, 100 mg/kg, 1 h before i.p. carrageenan, read 2 h later): 6.97 ± 3.81 x 10⁻⁵/ml | % Change ([4]; Table 1, 100 mg/kg, PMN vs vehicle): -36^d % | % Change ([4]; Table 1, 200 mg/kg): -94^b % | PMN x 10⁻⁵/ml (mean ± S.D.) ([4]; Table 1, 200 mg/kg): 0.66 ± 0.53 x 10⁻⁵/ml | Change in Paw Volume ([7]; 100 mg/kg): 0.13 ± 0.05 mL | (% Inhibition) of change in paw volume ([7]; 100 mg/kg): 52%

IC50 [8, 9]: 0.5 µM | IC50 [8, 10]: 0.5 µM
Structure (SMILES): CC(C)Cc1ccc(C(C)C(=O)O)cc1 (stereo not drawn) [Ibuprofen, reference compound]
% Change ([3]; 250 mg/kg): +20^b % | Increase in Ear Thickness at 1 Hour (x 10⁻³ cm) ([3]; 250 mg/kg): 30.8 ± 2.0 x 10⁻³ cm
